Values quoted from earlier work in PubChem BioAssay AID1259409 (Chemical Carcinogenesis Research Information System (CCRIS), 2018).

Test system: rodent chemically induced tumor inhibition, incidence and multiplicity
Assay: CCRIS tumor inhibitor studies

C=Cc1c(C)c2[n-]c1=CC1=NC(=CC3=C(C)C(=C([O-])[O-])C(=N3)C(CC(=O)[O-])=C3N=C(C=2)C(C)C3CCC(=O)[O-])C(CC)=C1C.[Cu+2].[Na+].[Na+].[Na+] (stereo not drawn)
tumour outcome (control, treated, inhibition, significance) (Carcinogen: 2,2'-DIHYDROXY-DI-N-PROPYLNITROSAMINE, 53609-64-6, N-ETHYL-N-HYDROXYETHYLNITROSAMINE, 13147-25-6, 3,2'-DIMETHYL-1,4-, Carcinogen: 2,2'-DIHYDROXY-DI-N-PROPYLNITROSAMINE, 53609-64-6, N-ETHYL-N-HYDROXYETHYLNITROSAMINE, 13147-25-6, 3,2'-DIMETHYL-1,4-, Dose [Inhibitor]: 0, 1% IN DIET FOR 4 WK BEGINNING 1 D PRIOR TO FIRST CARCINOGEN DOSE (STUDY DURATION: 36 WK), Route [Inhibitor]: ORAL, Species: RAT, Strain/Sex: F344/MALE, Target Tissue: Type of Lesion: KIDNEY: ADENOMA, Dose [Carcinogen]: 1000 MG/KG BW DHPN TWICE, 1500 MG/KG EHEN TWICE, 75 MG/KG BW DMAB 3 TIMES, SEQUENTIALLY OVER 3 WK, Promoter: NONE USED): 6/10 (60%), 6/13 (46%), 23%, not significant | tumour outcome (control, treated, inhibition, significance) (Carcinogen: 2,2'-DIHYDROXY-DI-N-PROPYLNITROSAMINE, 53609-64-6, N-ETHYL-N-HYDROXYETHYLNITROSAMINE, 13147-25-6, 3,2'-DIMETHYL-1,4-, Carcinogen: 2,2'-DIHYDROXY-DI-N-PROPYLNITROSAMINE, 53609-64-6, N-ETHYL-N-HYDROXYETHYLNITROSAMINE, 13147-25-6, 3,2'-DIMETHYL-1,4-, Dose [Inhibitor]: 0, 1% IN DIET FOR 4 WK BEGINNING 1 D PRIOR TO FIRST CARCINOGEN DOSE (STUDY DURATION: 36 WK), Route [Inhibitor]: ORAL, Species: RAT, Strain/Sex: F344/MALE, Target Tissue: Type of Lesion: LUNG: ADENOMA, Dose [Carcinogen]: 1000 MG/KG BW DHPN TWICE, 1500 MG/KG EHEN TWICE, 75 MG/KG BW DMAB 3 TIMES, SEQUENTIALLY OVER 3 WK, Promoter: NONE USED): 5/10 (50%), 8/13 (62%), -24%, not significant | tumour outcome (control, treated, inhibition, significance) (Carcinogen: 2-AMINO-1-METHYL-6-PHENYLIMIDAZO[4,5-B]PYRIDINE, 105650-23-5, Dose [Inhibitor]: 0, 1% IN DIET FOR 54 WK (STUDY DURATION: 54 WK), Route [Inhibitor]: ORAL, Species: RAT, Strain/Sex: F344/FEMALE, Target Tissue: Type of Lesion: COLON: ADENOMA, Dose [Carcinogen]: 0.02% IN DIET FOR 54 WK, Promoter: NONE USED): 2/20 (10%), 4/20 (20%), -100%, not significant | tumour outcome (control, treated, inhibition, significance) (Carcinogen: 2-AMINO-1-METHYL-6-PHENYLIMIDAZO[4,5-B]PYRIDINE, 105650-23-5, Dose [Inhibitor]: 0, 1% IN DIET FOR 54 WK (STUDY DURATION: 54 WK), Route [Inhibitor]: ORAL, Species: RAT, Strain/Sex: F344/FEMALE, Target Tissue: Type of Lesion: MAMMARY GLAND: ADENOCARCINOMA, Dose [Carcinogen]: 0.02% IN DIET FOR 54 WK, Promoter: NONE USED): 8/20 (40%), 3/20 (15%), 63%, not significant | tumour outcome (control, treated, inhibition, significance) (Carcinogen: 2-AMINO-1-METHYL-6-PHENYLIMIDAZO[4,5-B]PYRIDINE, 105650-23-5, Dose [Inhibitor]: 0, 1% IN DIET FOR 54 WK (STUDY DURATION: 54 WK), Route [Inhibitor]: ORAL, Species: RAT, Strain/Sex: F344/FEMALE, Target Tissue: Type of Lesion: MAMMARY GLAND: FIBROADENOMA, Dose [Carcinogen]: 0.02% IN DIET FOR 54 WK, Promoter: NONE USED): 2/20 (10%), 0/20 (0%), 100%, not significant | tumour outcome (control, treated, inhibition, significance) (Carcinogen: 7,12-DIMETHYLBENZ[A]ANTHRACENE [57-97-6], Dose [Inhibitor]: 0.5% IN 0.2 ML DMSO/ACETONE (15:85) 1 D PRIOR TO CARCINOGEN DOSE (STUDY DURATION: 31 WK), Route [Inhibitor]: DERMAL, Species: MOUSE, Strain/Sex: ICR/FEMALE, Target Tissue: Type of Lesion: SKIN: TUMOR, Dose [Carcinogen]: 0.2 UMOL ONCE (STUDY DURATION: 31 WK), Promoter: 12-O-TETRADECANOYLPHORBOL-13-ACETATE [16561-29-8]): 100%, 87%, 13%, not significant | tumour outcome (control, treated, inhibition, significance) (Carcinogen: 7,12-DIMETHYLBENZ[A]ANTHRACENE [57-97-6], Dose [Inhibitor]: 0.5% IN 0.2 ML DMSO/ACETONE (15:85) 1 D PRIOR TO CARCINOGEN DOSE AND 10 MIN PRIOR TO EACH PROMOTER DOSE FOR 30 WK (STUDY, Route [Inhibitor]: DERMAL, Species: MOUSE, Strain/Sex: ICR/FEMALE, Target Tissue: Type of Lesion: SKIN: TUMOR, Dose [Carcinogen]: 0.2 UMOL ONCE (STUDY DURATION: 31 WK), Promoter: 12-O-TETRADECANOYLPHORBOL-13-ACETATE [16561-29-8]): 100%, 27%, 73%, p<0.005 | tumour outcome (control, treated, inhibition, significance) (Carcinogen: 7,12-DIMETHYLBENZ[A]ANTHRACENE [57-97-6], Dose [Inhibitor]: 0.5% IN 0.2 ML DMSO/ACETONE (15:85) 10 MIN PRIOR TO EACH PROMOTER DOSE FOR 30 WK (STUDY DURATION: 30 WK), Route [Inhibitor]: DERMAL, Species: MOUSE, Strain/Sex: ICR/FEMALE, Target Tissue: Type of Lesion: SKIN: TUMOR, Dose [Carcinogen]: 0.2 UMOL ONCE (STUDY DURATION: 30 WK), Promoter: 12-O-TETRADECANOYLPHORBOL-13-ACETATE [16561-29-8]): 100%, 40%, 60%, p<0.005 | tumour outcome (control, treated, inhibition, significance) (Carcinogen: BENZO[A]PYRENE-7,8-DIHYDRODIOL-9,10-EPOXIDE, 58917-67-2, Dose [Inhibitor]: 0, 15 MG/KG BW ONCE 30 MIN PRIOR TO CARCINOGEN DOSE (STUDY DURATION: 24 WK), Route [Inhibitor]: GAVAGE, Species: MOUSE, Strain/Sex: ICR/FEMALE, Target Tissue: Type of Lesion: SKIN: PAPILLOMA, Dose [Carcinogen]: 0.1 UMOL ONCE, Promoter: 12-O-TETRADECANOYLPHORBOL-13-ACETATE, 16561-29-8): 98%, 70%, 29%, not calculated | tumour outcome (control, treated, inhibition, significance) (Carcinogen: BENZO[A]PYRENE, 50-32-8, Dose [Inhibitor]: 0, 15 MG/KG BW ONCE 30 MIN PRIOR TO CARCINOGEN DOSE (STUDY DURATION: 40 WK), Route [Inhibitor]: GAVAGE, Species: MOUSE, Strain/Sex: ICR/FEMALE, Target Tissue: Type of Lesion: SKIN: PAPILLOMA, Dose [Carcinogen]: 0.3 UMOL ONCE, Promoter: 12-O-TETRADECANOYLPHORBOL-13-ACETATE, 16561-29-8): 97%, 78%, 20%, not calculated | tumour outcome (control, treated, inhibition, significance) (Carcinogen: DIETHYLNITROSAMINE, 55-18-5, Dose [Inhibitor]: 0, 2000 PPM IN DIET FOR 4 WK DURING INITIATION (STUDY DURATION: 24 WK), Route [Inhibitor]: ORAL, Species: RAT, Strain/Sex: F344/MALE, Target Tissue: Type of Lesion: LIVER: ADENOMA, Dose [Carcinogen]: 100 MG/KG BW 1/WK FOR 3 WK, Promoter: PHENOBARBITAL, 50-06-6): 95%, 70%, 26%, p<0.05 | tumour outcome (control, treated, inhibition, significance) (Carcinogen: DIETHYLNITROSAMINE, 55-18-5, Dose [Inhibitor]: 0, 2000 PPM IN DIET FOR 4 WK DURING INITIATION (STUDY DURATION: 24 WK), Route [Inhibitor]: ORAL, Species: RAT, Strain/Sex: F344/MALE, Target Tissue: Type of Lesion: LIVER: CARCINOMA, Dose [Carcinogen]: 100 MG/KG BW 1/WK FOR 3 WK, Promoter: PHENOBARBITAL, 50-06-6): 70%, 60%, 14%, not significant | tumour outcome (control, treated, inhibition, significance) (Carcinogen: DIETHYLNITROSAMINE, 55-18-5, Dose [Inhibitor]: 0, 2000 PPM IN DIET FOR 20 WK BEGINNING 1 WK POST CARCINOGEN TREATMENT (STUDY DURATION: 24 WK), Route [Inhibitor]: ORAL, Species: RAT, Strain/Sex: F344/MALE, Target Tissue: Type of Lesion: LIVER: ADENOMA, Dose [Carcinogen]: 100 MG/KG BW 1/WK FOR 3 WK, Promoter: NONE USED): 13%, 13%, 0%, not significant | tumour outcome (control, treated, inhibition, significance) (Carcinogen: DIETHYLNITROSAMINE, 55-18-5, Dose [Inhibitor]: 0, 2000 PPM IN DIET FOR 20 WK BEGINNING 1 WK POST CARCINOGEN TREATMENT (STUDY DURATION: 24 WK), Route [Inhibitor]: ORAL, Species: RAT, Strain/Sex: F344/MALE, Target Tissue: Type of Lesion: LIVER: ADENOMA, Dose [Carcinogen]: 100 MG/KG BW 1/WK FOR 3 WK, Promoter: PHENOBARBITAL, 50-06-6): 95%, 63%, 34%, p<0.02 | tumour outcome (control, treated, inhibition, significance) (Carcinogen: DIETHYLNITROSAMINE, 55-18-5, Dose [Inhibitor]: 0, 2000 PPM IN DIET FOR 20 WK BEGINNING 1 WK POST CARCINOGEN TREATMENT (STUDY DURATION: 24 WK), Route [Inhibitor]: ORAL, Species: RAT, Strain/Sex: F344/MALE, Target Tissue: Type of Lesion: LIVER: CARCINOMA, Dose [Carcinogen]: 100 MG/KG BW 1/WK FOR 3 WK, Promoter: NONE USED): 29%, 31%, -7%, not significant | tumour outcome (control, treated, inhibition, significance) (Carcinogen: DIETHYLNITROSAMINE, 55-18-5, Dose [Inhibitor]: 0, 2000 PPM IN DIET FOR 20 WK BEGINNING 1 WK POST CARCINOGEN TREATMENT (STUDY DURATION: 24 WK), Route [Inhibitor]: ORAL, Species: RAT, Strain/Sex: F344/MALE, Target Tissue: Type of Lesion: LIVER: CARCINOMA, Dose [Carcinogen]: 100 MG/KG BW 1/WK FOR 3 WK, Promoter: PHENOBARBITAL, 50-06-6): 70%, 63%, 10%, not significant | tumour outcome (control, treated, inhibition, significance) (Dose [Inhibitor]: 0, 500 PPM IN DIET FOR 2 WK ADMINISTERED WITH CARCINOGEN (STUDY DURATION: 9 MO), Route [Inhibitor]: ORAL, Species: FISH, Strain/Sex: RAINBOW TROUT/MALE, FEMALE, Target Tissue: Type of Lesion: LIVER: TUMOR, Promoter: NONE USED): 16%, 12%, 25%, p=0.29 | tumour outcome (control, treated, inhibition, significance) (Dose [Inhibitor]: 0, 500 PPM IN DIET FOR 2 WK ADMINISTERED WITH CARCINOGEN (STUDY DURATION: 9 Mo), Route [Inhibitor]: ORAL, Species: FISH, Strain/Sex: RAINBOW TROUT/MALE, FEMALE, Target Tissue: Type of Lesion: LIVER: TUMOR, Promoter: NONE USED): 7%, 3%, 57%, p=0.04
